The record followed here is PubChem BioAssay (NCI).

Some test systems named below: MOLT-4 leukemia; HCT-15 colon; SF-539 CNS; HOP-62 NSCLC; SF-295 CNS; K-562 leukemia; SNB-19 CNS; DMS 114 small cell lung; ACHN renal; UACC-62 melanoma; NCI-H226 lung; SNB-78 CNS; SF-268 CNS; HT29 colon; SK-OV-3 ovarian; HCC-2998 colon; HL-60(TB) leukemia; A549 NSCLC; IGROV1 ovarian; COLO 205 colon.
Test in all cases: NCI anticancer screen, dose series, 48 h

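Cells were grown in 96-well plates and exposed to each compound for 48 hours at five concentrations; endpoints were interpolated linearly between bracketing concentrations, or set to the highest concentration if not reached. Definition used: TGI = concentration required for complete inhibition of growth.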

`CN1Cc2ccccc2C2(COc3ccccc3C2=O)C1` (stereo unspecified): the TGI in the experiment with MOLT-4 leukemia, in the experiment with HCT-15 colon, in the experiment with SF-539 CNS, in the experiment with HOP-62 NSCLC, with SF-295 CNS and with K-562 leukemia was above 100 µM in each case. The TGI with SNB-19 CNS, in the experiment with DMS 114 small cell lung, in the experiment with ACHN renal, with UACC-62 melanoma, with NCI-H226 lung and with SNB-78 CNS was above 100 µM in each case. Besides, the TGI in the experiment with SF-268 CNS, in the experiment with HT29 colon, in the experiment on SK-OV-3 ovarian, in the experiment on HCC-2998 colon, with HL-60(TB) leukemia and in the experiment with A549 NSCLC was above 100 µM in each case. Further, in the experiment on IGROV1 ovarian, the TGI was above 100 µM.

As to `CC(=O)c1c(-c2ccco2)c(C#N)c(=S)n(C2OC(CO)C(O)C(O)C2O)c1C` (stereo unspecified), the TGI in the experiment on MOLT-4 leukemia, with HCT-15 colon, with SF-539 CNS, in the experiment with HOP-62 NSCLC, with SF-295 CNS and in the experiment with K-562 leukemia was above 100 µM throughout. Further, the TGI with SNB-19 CNS, with ACHN renal, in the experiment with UACC-62 melanoma, with SF-268 CNS, with HT29 colon and in the experiment with SK-OV-3 ovarian was above 100 µM throughout. The TGI in the experiment with HL-60(TB) leukemia, in the experiment on A549 NSCLC, in the experiment on IGROV1 ovarian and in the experiment on COLO 205 colon was above 100 µM in each case.

`CN1COCN=C1NC#N`: the TGI with MOLT-4 leukemia, with HCT-15 colon, in the experiment on SF-539 CNS, in the experiment on HOP-62 NSCLC, in the experiment on SF-295 CNS and in the experiment on K-562 leukemia was above 100 µM in each case. The TGI with SNB-19 CNS, in the experiment on DMS 114 small cell lung, in the experiment with ACHN renal, in the experiment with UACC-62 melanoma, in the experiment with NCI-H226 lung and in the experiment on SNB-78 CNS was above 100 µM each time. Besides, the TGI in the experiment on SF-268 CNS, in the experiment with HT29 colon, in the experiment with SK-OV-3 ovarian, in the experiment on HCC-2998 colon, in the experiment on HL-60(TB) leukemia and with A549 NSCLC was above 100 µM throughout. Further, the TGI in the experiment with IGROV1 ovarian and in the experiment on COLO 205 colon was above 100 µM each time.

As for `Cc1cc(C)c(S(=O)(=O)N(CCCCCN)OCCCN)c(C)c1`, the TGI in the experiment with MOLT-4 leukemia stood at 33 µM; in the experiment with SF-539 CNS, 27 µM; with HOP-62 NSCLC, 32.3 µM; in the experiment with SF-295 CNS, 30.4 µM; in the experiment with K-562 leukemia it was 60.8 µM; in the experiment with SNB-19 CNS, 37.6 µM. Further, the TGI in the experiment with ACHN renal stood at 33.6 µM; in the experiment with UACC-62 melanoma it was 33.4 µM; in the experiment with NCI-H226 lung it was 29.9 µM; with SF-268 CNS, 37.6 µM; in the experiment with HT29 colon it was 27.9 µM; in the experiment with HCC-2998 colon it was 20 µM. In addition, the values for the TGI in the experiment with A549 NSCLC, in the experiment on IGROV1 ovarian and with COLO 205 colon were 36 µM, 30 µM and 37.9 µM, respectively.

For `COC1CCC(CO)OO1` (stereo unspecified), the TGI with MOLT-4 leukemia is above 100 µM; in the experiment with SF-539 CNS it was above 100 µM; in the experiment on HOP-62 NSCLC, above 100 µM; in the experiment with SF-295 CNS it was 73.6 µM; in the experiment with K-562 leukemia, above 100 µM; with SNB-19 CNS, above 100 µM. Further, the TGI in the experiment with DMS 114 small cell lung is 36.6 µM; in the experiment with ACHN renal, above 100 µM; with UACC-62 melanoma, above 100 µM; with SNB-78 CNS, 66.9 µM; in the experiment with SF-268 CNS, above 100 µM; with HT29 colon it was above 100 µM. Also, the TGI was above 100 µM in the experiment on SK-OV-3 ovarian, 58 µM with HL-60(TB) leukemia, 75.8 µM with IGROV1 ovarian and above 100 µM with COLO 205 colon.
